# From patent US7258738B2, “Cementing compositions including salts” (Halliburton Energy Services, Inc., priority 2005, dated 2007)
# How the values were obtained:
# skeletonema costatum = assay: Algae toxicity, ISO 10253 (HOCNF); assay type: in vivo; conditions: amount required to kill or incapacitate half the test population
# Source text: (§1) According to still other embodiments described herein, a disulfonate salt of 2,4-pentanedione is provided. According to one such embodiment, the salt comprises 2,4-pentanedione-1,5-sodium disulfonate. According to another such embodiment, a disulfonate salt of 2,4-pentanedione has an environmentally acceptable toxicity. As used herein, the term “environmentally acceptable toxicity” means that, when tested according to procedures that are the same as or equivalent to those set forth by the OSPAR Guidelines for Completing the Harmonised Offshore Chemical Notification Format (HOCNF) (References number: 2003-1) that were in effect on Dec. 31, 2004, the salt is determined to have a toxicity of greater than about 10,000 mg/L for an algae (skeletonema costatum), a crustacean (acartia tonsa), a fish (scopthalmus) and a sediment reworker (corophium volutator). […]
# (§2) In this Example 3, the toxicity results for the skeletonema costatum were determined according to ISO (International Organization for Standardization) 10253, the protocol for which is known to those of ordinary skill in the art, and is also the protocol required under the above-referenced HOCNF Guidelines. The toxicity results for the acartia tonsa were determined according to ISO 14669, the protocol for which is known to those of ordinary skill in the art. […]
# acartia tonsa = assay: Crustacean toxicity, ISO 14669; assay type: in vivo; conditions: amount required to kill or incapacitate half the test population
# Source text: as §1, §2
# scopthalmus = assay: Fish toxicity, Part B of the OSPAR Protocols; assay type: in vivo; conditions: amount required to kill or incapacitate half the test population
# Source text: as §1, §2
# corophium volutator = assay: Sediment reworker toxicity, Part B of the OSPAR Protocols; assay type: in vivo; conditions: amount required to kill or incapacitate half the test population
# Source text: as §1, §2
# [1] = Solubility of salt compared to free acid (methanol rinse); assay type: physicochemical
# Source text: The neutralized product was then rinsed several times with methanol to remove by-product acids, or any salts formed therefrom, while leaving the 2,4-pentanedione-1,5-sodium disulfonate primarily undissolved. […] The rinsed product was dried in a vacuum oven and filtered through a 300 mesh screen to afford a flowing pale orange/red powder. The resulting powder was 2,4-pentanedione-1,5-sodium disulfonate.
smiles,measurement,setting,value
"O=C(CC(=O)CS(=O)(=O)[O-])CS(=O)(=O)[O-].[Na+].[Na+] [2,4-pentanedione-1,5-sodium disulfonate]",toxicity,skeletonema costatum,"greater than 10,000 mg/L"
same,toxicity,acartia tonsa,"greater than 10,000 mg/L"
same,toxicity,scopthalmus,"greater than 10,000 mg/L"
same,toxicity,corophium volutator,"greater than 10,000 mg/L"
same,"solubility compared to the 2,4-pentanedione-1,5-disulfonic free acid",[1],significantly less soluble
